# Tests used:
# [1] = test system: Streptococcus sp.; experiment: In vitro antibacterial evaluation: minimum inhibitory concentration (MIC), broth dilution method; type: cell-based
# Outline: (§1)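 NCCLS M7-A2 broth dilution; Muller-Hinton II […]; 5×10^5 CFU/mL; 64-0.06 μg/mL. MIC = lowest concentration with no growth.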
# [2] = test system: Enterococcus sp.; experiment: as above; type: cell-based
# Outline: as §1
# [3] = test system: Staphylococcus sp.; experiment: as above; type: cell-based; details: for MIC Staphylococcus haemolyticus (GC 4546): strain GC 4546; for MIC Coagulase Negative Staphylococcus (GC 4547): strain GC 4547; for MIC Coagulase Negative Staphylococcus (GC 4548): strain GC 4548; for MIC Coagulase Negative Staphylococcus (GC 4549): strain GC 4549; for MIC Coagulase Negative Staphylococcus (GC 4551): strain GC 4551; for MIC Coagulase Negative Staphylococcus (GC 6257): strain GC 6257
# Outline: as §1
# [4] = test system: Escherichia coli; experiment: as above; type: cell-based
# Outline: as §1
# [5] = test system: Staphylococcus aureus-SMITH (GC 4543); experiment: Acute lethal infection in mice (ED50); type: in vivo; details: female CD-1 mice, intraperitoneal challenge, intravenous dose 30 min. after infection, 7 day survival ratios
# Outline: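 Lethal systemic infection model: female CD-1 mice, 20 ± 1-2 g, intraperitoneal challenge. Single intravenous treatment 30 min after infection; 7-day survival, pooled from 3 tests, gives ED50.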
# [6] = broth dilution, 18 hours at 35° C.
substance,measurement,setting,value
Tri-N-[(phenylmethoxy)carbonyl]-cyclo[glycyl-β-methylphenylalanyltyrosyl-3-(2-iminoimidazolidin-4-yl)seryl-3-(3-hexopyranosyl-2-iminoimidazolidin-4-yl)serylseryl] [Example 89],MIC Streptococcus agalactiae (GC 4564),"[1]; Streptococcus agalactiae (GC 4564), broth dilution, 18 hours at 35° C.",32 µg/mL
same,MIC Streptococcus pneumoniae (ATCC 6301),"[1]; Streptococcus pneumoniae (ATCC 6301), broth dilution, 18 hours at 35° C.",16 µg/mL
same,MIC Streptococcus pneumoniae (GC 1894),"[1]; Streptococcus pneumoniae (GC 1894), broth dilution, 18 hours at 35° C.",4 µg/mL
same,MIC Streptococcus pneumoniae (GC 4565),"[1]; Streptococcus pneumoniae (GC 4565), broth dilution, 18 hours at 35° C.",8 µg/mL
same,MIC Streptococcus pyogenes (GC 4563),"[1]; Streptococcus pyogenes (GC 4563), broth dilution, 18 hours at 35° C.",32 µg/mL
same,MIC Streptococcus pneumoniae (ATCC 6301),[1]; strain ATCC 6301,16 µg/mL
same,MIC Streptococcus pneumoniae (GC 1894),[1]; strain GC 1894,4 µg/mL
same,MIC Streptococcus pyogenes (GC 4563),[1]; strain GC 4563,32 µg/mL
same,MIC Streptococcus agalactiae (GC 4564),[1]; strain GC 4564,32 µg/mL
same,MIC Streptococcus pneumoniae (GC 4565),[1]; strain GC 4565,8 µg/mL
same,MIC Enterococcus avium (GC 4558),"[2]; Enterococcus avium (GC 4558), broth dilution, 18 hours at 35° C.",32 µg/mL
same,MIC Enterococcus faecalis (ATCC 29212),"[2]; Enterococcus faecalis (ATCC 29212), broth dilution, 18 hours at 35° C.",64 µg/mL
same,MIC Enterococcus faecalis (GC 2242),"[2]; Enterococcus faecalis (GC 2242), broth dilution, 18 hours at 35° C.",64 µg/mL
same,MIC Enterococcus faecalis (GC 2691),"[2]; Enterococcus faecalis (GC 2691), broth dilution, 18 hours at 35° C.",64 µg/mL
same,MIC Enterococcus faecalis (GC 3059),"[2]; Enterococcus faecalis (GC 3059), broth dilution, 18 hours at 35° C.",64 µg/mL
same,MIC Enterococcus faecalis (GC 4552),"[2]; Enterococcus faecalis (GC 4552), broth dilution, 18 hours at 35° C.",64 µg/mL
same,MIC Enterococcus faecalis (GC 4553),"[2]; Enterococcus faecalis (GC 4553), broth dilution, 18 hours at 35° C.",64 µg/mL
same,MIC Enterococcus faecalis (GC 4554),"[2]; Enterococcus faecalis (GC 4554), broth dilution, 18 hours at 35° C.",64 µg/mL
same,MIC Enterococcus faecalis (GC 6189),"[2]; Enterococcus faecalis (GC 6189), broth dilution, 18 hours at 35° C.",64 µg/mL
same,MIC Enterococcus faecium (GC 2243),"[2]; Enterococcus faecium (GC 2243), broth dilution, 18 hours at 35° C.",64 µg/mL
same,MIC Enterococcus faecium (GC 4556),"[2]; Enterococcus faecium (GC 4556), broth dilution, 18 hours at 35° C.",64 µg/mL
same,MIC Enterococcus faecium (GC 4557),"[2]; Enterococcus faecium (GC 4557), broth dilution, 18 hours at 35° C.",32 µg/mL
same,MIC Enterococcus faecalis (ATCC 29212),[2]; strain ATCC 29212,64 µg/mL
same,MIC Enterococcus faecalis (GC 2242),[2]; strain GC 2242,64 µg/mL
same,MIC Enterococcus faecium (GC 2243),[2]; strain GC 2243,64 µg/mL
same,MIC Enterococcus faecalis (GC 2691),[2]; strain GC 2691,64 µg/mL
same,MIC Enterococcus faecalis (GC 3059),[2]; strain GC 3059,64 µg/mL
same,MIC Enterococcus faecalis (GC 4552),[2]; strain GC 4552,64 µg/mL
same,MIC Enterococcus faecalis (GC 4553),[2]; strain GC 4553,64 µg/mL
same,MIC Enterococcus faecalis (GC 4554),[2]; strain GC 4554,64 µg/mL
same,MIC Enterococcus faecium (GC 4556),[2]; strain GC 4556,64 µg/mL
same,MIC Enterococcus faecium (GC 4557),[2]; strain GC 4557,32 µg/mL
same,MIC Enterococcus avium (GC 4558),[2]; strain GC 4558,32 µg/mL
same,MIC Enterococcus faecalis (GC 6189),[2]; strain GC 6189,64 µg/mL
same,MIC Staphylococcus aureus (ATCC 29213),[3]; [6],64 µg/mL
same,MIC Staphylococcus aureus (GC 1131),[3]; [6],64 µg/mL
same,MIC Staphylococcus aureus (GC 3051),[3]; [6],64 µg/mL
same,MIC Staphylococcus aureus (GC 3053),[3]; [6],64 µg/mL
same,MIC Staphylococcus aureus (GC 4541),[3]; [6],64 µg/mL
same,MIC Staphylococcus aureus (GC 4542),[3]; [6],64 µg/mL
same,MIC Staphylococcus aureus (GC 4544),[3]; [6],64 µg/mL
same,MIC Staphylococcus aureus (GC 4545),[3]; [6],64 µg/mL
same,MIC Staphylococcus aureus (ATCC 29213),"[3]; strain ATCC 29213, broth dilution, 18 hours at 35° C.",64 µg/mL
same,MIC Staphylococcus aureus (GC 1131),"[3]; strain GC 1131, broth dilution, 18 hours at 35° C.",64 µg/mL
same,MIC Staphylococcus aureus (GC 3051),"[3]; strain GC 3051, broth dilution, 18 hours at 35° C.",64 µg/mL
same,MIC Staphylococcus aureus (GC 3053),"[3]; strain GC 3053, broth dilution, 18 hours at 35° C.",64 µg/mL
same,MIC Staphylococcus aureus (GC 4541),"[3]; strain GC 4541, broth dilution, 18 hours at 35° C.",64 µg/mL
same,MIC Staphylococcus aureus (GC 4542),"[3]; strain GC 4542, broth dilution, 18 hours at 35° C.",64 µg/mL
same,MIC Staphylococcus aureus-SMITH (GC 4543),"[3]; strain GC 4543, 18 hours at 35° C.",64 µg/mL
same,MIC Staphylococcus aureus (GC 4544),"[3]; strain GC 4544, broth dilution, 18 hours at 35° C.",64 µg/mL
same,MIC Staphylococcus aureus (GC 4545),"[3]; strain GC 4545, broth dilution, 18 hours at 35° C.",64 µg/mL
same,MIC Staphylococcus haemolyticus (GC 4546),[3],32 µg/mL
same,MIC Staphylococcus haemolyticus (GC 4546),[3]; [6],32 µg/mL
same,MIC Coagulase Negative Staphylococcus (GC 4547),[3],32 µg/mL
same,MIC Coagulase Negative Staphylococcus (GC 4547),[3]; [6],32 µg/mL
same,MIC Coagulase Negative Staphylococcus (GC 4548),[3],64 µg/mL
same,MIC Coagulase Negative Staphylococcus (GC 4548),[3]; [6],64 µg/mL
same,MIC Coagulase Negative Staphylococcus (GC 4549),[3],64 µg/mL
same,MIC Coagulase Negative Staphylococcus (GC 4549),[3]; [6],64 µg/mL
same,MIC Coagulase Negative Staphylococcus (GC 4551),[3],64 µg/mL
same,MIC Coagulase Negative Staphylococcus (GC 4551),[3]; [6],64 µg/mL
same,MIC Coagulase Negative Staphylococcus (GC 6257),[3],32 µg/mL
same,MIC Coagulase Negative Staphylococcus (GC 6257),[3]; [6],32 µg/mL
same,MIC Staphylococcus aureus-SMITH (GC 4543),"[3]; strain SMITH GC 4543, broth dilution, 18 hours at 35° C.",64 µg/mL
same,MIC Escherichia coli (ATCC 25922),[4]; strain ATCC 25922,>64 µg/mL
same,MIC Escherichia coli (GC 4559),[4]; strain GC 4559,>64 µg/mL
same,MIC Escherichia coli (GC 4560),[4]; strain GC 4560,32 µg/mL
same,"median effective dose (ED50), Staphylococcus aureus-SMITH (GC 4543)",[5],>8

# Source: US8247211B2, “Glycopeptide antibiotics” (American Cyanamid Company, priority 2001, dated 2012)
